Biological target: T1, acylpeptide hydrolase (APEH) (Homo sapiens, UniProt P13798)
T1 sequence (P13798 1-732): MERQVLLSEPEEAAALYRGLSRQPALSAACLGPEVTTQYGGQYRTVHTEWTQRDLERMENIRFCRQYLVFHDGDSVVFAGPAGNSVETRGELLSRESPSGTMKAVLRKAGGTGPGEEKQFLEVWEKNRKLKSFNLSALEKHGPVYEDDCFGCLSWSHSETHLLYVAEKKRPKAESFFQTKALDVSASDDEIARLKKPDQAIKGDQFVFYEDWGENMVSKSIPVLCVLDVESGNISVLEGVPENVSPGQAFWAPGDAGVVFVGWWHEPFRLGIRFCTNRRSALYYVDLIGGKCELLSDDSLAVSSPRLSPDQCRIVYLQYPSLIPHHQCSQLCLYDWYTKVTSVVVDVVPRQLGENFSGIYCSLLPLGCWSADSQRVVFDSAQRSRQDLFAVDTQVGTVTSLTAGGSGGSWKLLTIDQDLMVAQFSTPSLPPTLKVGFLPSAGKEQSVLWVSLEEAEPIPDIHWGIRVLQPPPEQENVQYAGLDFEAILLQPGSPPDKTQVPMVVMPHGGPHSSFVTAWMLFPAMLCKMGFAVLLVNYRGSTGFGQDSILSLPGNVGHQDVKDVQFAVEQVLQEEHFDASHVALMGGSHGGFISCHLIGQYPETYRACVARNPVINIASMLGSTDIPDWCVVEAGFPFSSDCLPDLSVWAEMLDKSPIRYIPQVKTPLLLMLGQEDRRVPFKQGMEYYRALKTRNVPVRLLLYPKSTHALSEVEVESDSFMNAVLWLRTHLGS
Assay: competitive ABPP with TAMRA-FP in human erythrocyte lysate and saponin-isolated parasite lysate; also intact erythrocytes
Format: biochemical

In the case of `CC(C)CC(O)(CC(C)C)c1cnn(C(=O)N2CCCC2)n1` [AA74-1], the IC50 is reported as 7.4 ± 2.4 nM.

— PMC6506615, “Internalization of Erythrocyte Acylpeptide Hydrolase Is Required for Asexual Replication of Plasmodium falciparum” (mSphere, 2019)
